# Measured values: patent US10457665B2, “1,4-di-(4-methylthiophenyl)-3-phtaloylazetidine-2-one and the derivatives thereof” (Universite De Nantes, priority 2015, dated 2019)
# Legend:
# obese C57BL/6 mice [1] = test: Body mass, 43-day oral treatment combined with low-fat diet; assay type: in vivo, mouse; settings: low-fat diet (5% lipids), oral daily, 43 days
# Text: In order to determine the long-term effects of compound of interest JM-00.266 (i.e., compound IA), C57BL/6 mice were made obese by means of a high-fat diet (30% crude fat, 33.5% carbohydrates; ref. E15126-34, SSNIFF, Soest, Germany) for 15 weeks. The mice were then subjected to a low-fat diet (5% lipids; Standard Diet AO4; UAR, Epinay-sur-Orge, France) and received daily, in the middle of the day, an oral dose of JM-00.266 (i.e., compound IA) or of vehicle over a period of 43 days. The weight of the animals was measured every two days from the beginning of the treatment.
# CB1R (pcDNA3.1-mCB1) = target: T1, CB1R (pcDNA3.1-mCB1) (Mus musculus, UniProt P47746); test: GloSensor cAMP assay in CB1R-transfected HEK293T/17 cells; assay type: cell-based; settings: HEK293T/17 cells transfected with mCB1, forskolin 1 μM, FIG. 2
# T1 construct: expressed in transfected cells; host or cells: HEK293T/17 (ATCC), transient transfection with FuGENE HD
# Protocol: HEK293T/17 (ATCC) cells were cultured in DMEM 10% FCS, then seeded at 30000 cells/well in 96-well plates. After 24 h, the cells were subjected to transient transfection by FuGENE HD (Promega) by pcDNA3.1-mCB1 (50 ng) and pGlo (100 ng) plasmids with or without pertussis toxin (PTX). For the control assays, the cells were transfected with empty pcDNA3 (EV) and pGlo vectors with or without PTX. At 48 h (24 h post-transfection), the cells were loaded for 2 h with 2% GloReagent in CO2-independent medium with 10% FCS (80 μL/well).
# The cells were then treated by adding, at t=0, 10 μL/well of Forskolin (FSK) 1 μM final, in order to increase the basal cAMP concentration. The kinetics of appearance of cAMP was monitored for 10 minutes. At t=10, the molecules to be tested were added and the cAMP variations measured for 20 minutes. The light signal was measured in RLU and is expressed as % response relative to the signal read at t=10 min (FSK1 μM). Sigmoidal curves were obtained by measurement at t=10 min after addition of the molecule to be tested (thus t=20 min total) of the percentage of light signal as a function of molecule concentration. The 4PL regression was carried out using the Sigma Plot software and made it possible to obtain an EC50 (1 experiment, n=3).
# wild-type C57BL/6 mice = test: Acute oral glucose tolerance test (OGTT) in wild-type mice; assay type: in vivo, mouse; settings: 10 mg/kg i.p. 10 min before 2 g/kg oral glucose load, wild-type C57Bl/6J mice
# Protocol: In order to evaluate the short-term effects of the rimonabant-like molecules, as well as their selectivity for CB1R, wild-type C57BL/6 mice and CB1R −/− mice underwent an oral glucose tolerance test (OGTT at 2 g/kg) 10 min after i.p. injection of vehicle or of JM-02.003 or JM-00.266 (i.e., compound IA) (10 mg/kg). Blood glucose was measured at times t=0, t=15 min, t=30 min, t=45 min, t=60 min, t=90 min, and t=120 min post-oral. glucose administration using a Contour®TS blood glucose monitor (ref. 81574201, Bayer HealthCare) and reactive strips (ref. 81574274, Bayer HealthCare).
# obese C57BL/6 mice [2] = test: Glucose tolerance test after oral treatment simultaneously with food; assay type: in vivo, mouse; settings: 28 days, administered at the same time as the meal
# Protocol: In order to evaluate the long-term effects of the treatment on blood glucose control, glucose tolerance was evaluated at the end of the treatment period. The mice received an intraperitoneal injection of glucose (2 g/kg) then blood glucose was measured at times t=0, t=15 min, t=30 min, t=45 min, t=60 min, t=90 min, and t=120 min post-glucose injection using a My Life Pura blood glucose monitor (Ypsomed, Paris, France).
# [3] = system: liver, subcutaneous and visceral adipose tissue of obese mice; test: Gene expression of markers (RT-PCR) in liver and adipose tissues after oral treatment with food; assay type: in vivo, mouse
# obese C57BL/6 mice [4] = test: ITT before and after 30-day chronic treatment; assay type: in vivo, mouse; settings: obese mice after 30 days of treatment
# Protocol: (§1) In order to evaluate the long-term effects of the treatment on blood glucose control, glucose tolerance (OGTT) and insulin sensitivity (ITT) were evaluated pre- and post-treatment. Thus, for the OGTT the mice were force-fed glucose (2 g/kg), and for the ITT the mice received an i.p. injection of insulin (0.5 IU/kg). In both cases, blood glucose was measured at times t=0, t=15 min, t=30 min, t=45 min, t=60 min, t=90 min, and t=120 min post-glucose ingestion using a Contour®TS blood glucose monitor (ref. 81574201, Bayer HealthCare) and reactive strips (ref. 81574274, Bayer HealthCare).
# obese C57BL/6 mice [5] = test: Open-field test after 30-day chronic treatment; assay type: in vivo, mouse; settings: end of 30-day treatment, 10 mg/kg i.p.
# Protocol: Locomotor activity of the mice was measured at the conclusion of the chronic treatment with rimonabant or molecule JM-00.266 (i.e., compound IA) by an infrared monitoring system. To that end, the animals were placed individually in 43×43 cm plexiglass boxes (MED associates) for 20 min. Two series of 16 pulsed infrared beams were spaced 2.5 cm apart on opposite walls to record ambulatory X-Y movements at 100 ms resolution. The centre was defined as a central 32×32 cm square. In addition to locomotor activity information, this test makes it possible to predict anxiolytic activity in response to novelty or to an anxiogenic environment. The variables measured in the open field are total ambulatory activity (in cm), the number of entries and the time spent in the central area as well as the distance traversed in the centre divided by the total distance traversed.
# obese C57BL/6 mice [6] = test: OGTT before and after 30-day chronic treatment; assay type: in vivo, mouse; settings: obese mice after 30 days of treatment, 10 mg/kg
# Protocol: as §1
# obese C57BL/6 mice [7] = test: Food intake, body weight and body composition (EchoMRI) during 30-day chronic treatment; assay type: in vivo, mouse; settings: obese mice, 10 mg/kg i.p. daily, 30 days
# Text: In order to determine the long-term effects of the molecules of interest, C57BL/6 mice made obese by means of a high-sucrose, high-fat diet (HSHF: 30% crude fat, 33.5% carbohydrates; ref. E15126-34; ref. E15126-34, SSNIFF, Soest, Germany) for 20 weeks. These mice then received daily an i.p. injection of rimonabant, JM-00.266 (i.e., compound IA) or vehicle for a period of 30 days. In parallel, weight and food intake were monitored every two days following the beginning of the treatment.
# The long-term effect of the treatment on body composition was measured using an EchoMRI™ scanner allowing non-invasive analysis of fat mass, lean mass and body fluid composition by nuclear magnetic resonance (NMR) on the live animal without anaesthesia.
# T1 sequence (P47746 whole entry): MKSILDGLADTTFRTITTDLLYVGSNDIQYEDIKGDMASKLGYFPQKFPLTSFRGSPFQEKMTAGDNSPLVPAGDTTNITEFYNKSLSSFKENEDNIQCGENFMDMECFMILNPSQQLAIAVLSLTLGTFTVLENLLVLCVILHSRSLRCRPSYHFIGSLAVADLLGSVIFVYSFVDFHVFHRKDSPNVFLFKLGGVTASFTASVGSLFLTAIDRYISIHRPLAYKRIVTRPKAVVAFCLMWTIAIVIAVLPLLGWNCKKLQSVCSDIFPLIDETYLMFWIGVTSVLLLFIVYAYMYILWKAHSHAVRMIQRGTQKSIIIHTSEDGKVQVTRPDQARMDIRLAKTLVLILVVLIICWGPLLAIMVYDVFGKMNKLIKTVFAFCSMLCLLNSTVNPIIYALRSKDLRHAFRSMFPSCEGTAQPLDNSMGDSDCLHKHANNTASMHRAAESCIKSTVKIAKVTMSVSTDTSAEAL
smiles,measurement,setting,value
"CSc1ccc(C2C(N3C(=O)c4ccccc4C3=O)C(=O)N2c2ccc(SC)cc2)cc1 (stereo not drawn) [JM-00.266, trans-1,4-di-(4-methylthiophenyl)-3-N-phthaloyl-azetidine-2-one]",body mass / weight loss versus vehicle + low-fat diet,obese C57BL/6 mice [1],decreases significantly more
same,cAMP concentrations in the absence of agonist (AEA),CB1R (pcDNA3.1-mCB1),increased
same,glucose tolerance compared with vehicle,wild-type C57BL/6 mice,improves glucose tolerance
same,glucose tolerance versus vehicle,obese C57BL/6 mice [2],better glucose tolerance
same,G6P expression,[3],reduction
same,GLUT4 expression,[3],reduction
same,"reduction in blood glucose induced by insulin injection, compared with SR141716",obese C57BL/6 mice [4],more marked
same,insulin resistance (ITT),obese C57BL/6 mice [4]; 10 mg/kg,improved
same,motor activity,obese C57BL/6 mice [5],no effect
same,time spent in the centre of the arena / anxiety state,obese C57BL/6 mice [5],not altered
same,basal blood glucose,obese C57BL/6 mice [6],significant improvement
same,glucose tolerance (OGTT 2 g/kg),obese C57BL/6 mice [6],significant improvement
same,body weight relative to control mice,obese C57BL/6 mice [7],does not decrease
same,food intake compared with control mice,obese C57BL/6 mice [7],not altered
